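Following 48 hours of exposure in 96-well plates, responses at five concentrations were used to interpolate endpoints linearly. Here, GI50 denotes the concentration required for 50% inhibition of growth. At the TGI there is no net growth.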
Experiments:
Assay in all cases: NCI-60 cell line screen, 48 h; in the data active means GI50 below about 0.43 µM; inactive means the rest
IGROV1 ovarian = tested on: IGROV1 ovarian
OVCAR-8 ovarian = tested on: OVCAR-8 ovarian
NCI-H460 lung = tested on: NCI-H460 lung
NCI-H226 lung = tested on: NCI-H226 lung
RXF 393 renal = tested on: RXF 393 renal
RPMI-8226 leukemia = tested on: RPMI-8226 leukemia
HOP-62 NSCLC = tested on: HOP-62 NSCLC
MCF7 breast = tested on: MCF7 breast
TK-10 renal = tested on: TK-10 renal
MOLT-4 leukemia = tested on: MOLT-4 leukemia
786-0 renal = tested on: 786-0 renal
MDA-MB-435 = tested on: MDA-MB-435
OVCAR-4 ovarian = tested on: OVCAR-4 ovarian
SK-MEL-28 melanoma = tested on: SK-MEL-28 melanoma
K-562 leukemia = tested on: K-562 leukemia
CAKI-1 renal = tested on: CAKI-1 renal
NCI-H23 lung = tested on: NCI-H23 lung
BT-549 breast = tested on: BT-549 breast
UACC-62 melanoma = tested on: UACC-62 melanoma
MALME-3M melanoma = tested on: MALME-3M melanoma
A549 NSCLC = tested on: A549 NSCLC
SF-295 CNS = tested on: SF-295 CNS
HCT-116 colon = tested on: HCT-116 colon
OVCAR-3 ovarian = tested on: OVCAR-3 ovarian
HS 578T breast = tested on: HS 578T breast
LOX IMVI melanoma = tested on: LOX IMVI melanoma
SK-MEL-5 melanoma = tested on: SK-MEL-5 melanoma
OVCAR-5 ovarian = tested on: OVCAR-5 ovarian

COc1ccc(S(=O)(=O)Nc2cc(/C=C\c3cc(OC)c(OC)c(OC)c3)cc(OC)c2OC)cc1
> 100000 nM: TGI (IGROV1 ovarian) | TGI (OVCAR-8 ovarian) | TGI (NCI-H226 lung) | TGI (HOP-62 NSCLC) | TGI (MCF7 breast) | TGI (MOLT-4 leukemia) | TGI (OVCAR-4 ovarian) | TGI (SK-MEL-28 melanoma) | TGI (NCI-H23 lung) | TGI (A549 NSCLC) | TGI (SF-295 CNS) | TGI (HCT-116 colon) | TGI (HS 578T breast) | TGI (LOX IMVI melanoma) | TGI (OVCAR-5 ovarian)
48.2 nM: TGI (MDA-MB-435)
inactive: GI50 (NCI-H226 lung) 27300 nM | GI50 (MALME-3M melanoma) 12600 nM
97.7 nM: TGI (OVCAR-3 ovarian)
72400 nM: TGI (RXF 393 renal)
22600 nM: TGI (786-0 renal)
168 nM: TGI (SK-MEL-5 melanoma)
48200 nM: TGI (K-562 leukemia)
30900 nM: TGI (CAKI-1 renal)
69400 nM: TGI (UACC-62 melanoma)
13200 nM: TGI (RPMI-8226 leukemia)
17000 nM: TGI (NCI-H460 lung)
79000 nM: TGI (BT-549 breast)
97300 nM: TGI (MALME-3M melanoma)
active: GI50 (OVCAR-8 ovarian) 45.9 nM | GI50 (NCI-H460 lung) 36.7 nM | GI50 (RXF 393 renal) 40.1 nM | GI50 (RPMI-8226 leukemia) 45.9 nM | GI50 (HOP-62 NSCLC) 40.8 nM | GI50 (MCF7 breast) 36 nM | GI50 (TK-10 renal) 65 nM | GI50 (MOLT-4 leukemia) 49.5 nM | GI50 (786-0 renal) 57.9 nM | GI50 (MDA-MB-435) 21.1 nM | GI50 (OVCAR-4 ovarian) 84.2 nM | GI50 (SK-MEL-28 melanoma) 76.5 nM | GI50 (K-562 leukemia) 27.2 nM | GI50 (CAKI-1 renal) 53.1 nM | GI50 (NCI-H23 lung) 59.3 nM | GI50 (BT-549 breast) 42.5 nM | GI50 (UACC-62 melanoma) 46.1 nM | GI50 (A549 NSCLC) 47.4 nM | GI50 (SF-295 CNS) 31.1 nM | GI50 (HCT-116 colon) 35 nM | GI50 (OVCAR-3 ovarian) 34.5 nM | GI50 (HS 578T breast) 45.2 nM | GI50 (LOX IMVI melanoma) 50 nM | GI50 (SK-MEL-5 melanoma) 35.9 nM | GI50 (OVCAR-5 ovarian) 49.9 nM
78000 nM: TGI (TK-10 renal)

Reference: PubChem BioAssay (NCI)
